Values of other authors, collected in publication PMC8513935.

Experiments:
[1] = experimental, compiled by the authors from the literature (the ESI cites the sources)
[2] = derived by the authors as gas->solvent minus gas->water (a hypothetical dry solvent; the ESI), not a two-phase measurement

c1ccncc1
log K of transfer, gas to solvent ([1]; 1,2-Dichloroethane, 25 C): 4.16 log10 K
log K of transfer, gas to solvent ([1]; 2-Methylpropan-1-ol, 25 C): 4.16 log10 K
log K of transfer, gas to solvent ([1]; 2-Methylpropan-2-ol, 25 C): 3.96 log10 K
log K of transfer, gas to solvent ([1]; Benzene, 25 C): 3.87 log10 K
log K of transfer, gas to solvent ([1]; Butan-1-ol, 25 C): 3.95 log10 K
log K of transfer, gas to solvent ([1]; Butan-2-ol, 25 C): 4.13 log10 K
log K of transfer, gas to solvent ([1]; Butanone, 25 C): 3.94 log10 K
log K of transfer, gas to solvent ([1]; CCl4, 25 C): 3.77 log10 K
log K of transfer, gas to solvent ([1]; Chloroform, 25 C): 4.73 log10 K
log K of transfer, gas to solvent ([1]; Cyclohexane, 25 C): 3.03 log10 K
log K of transfer, gas to solvent ([1]; Ethanol, 25 C): 4.18 log10 K
log K of transfer, gas to solvent ([1]; Hexadecane, 25 C): 3.02 log10 K
log K of transfer, gas to solvent ([1]; Hexane, 25 C): 3.07 log10 K
log K of transfer, gas to solvent ([1]; Propan-1-ol, 25 C): 3.99 log10 K
log K of transfer, gas to solvent ([1]; Propan-2-ol, 25 C): 3.86 log10 K
log K of transfer, gas to solvent ([1]; Propanone, 25 C): 3.97 log10 K
log K of transfer, gas to solvent ([1]; Toluene, 25 C): 3.76 log10 K
log K of transfer, gas to solvent ([1]; Water, 25 C): 3.44 log10 K
log K of transfer, water to solvent ([2]; 1,2-Dichloroethane, 25 C): 0.72 log10 K
log K of transfer, water to solvent ([2]; 2-Methylpropan-1-ol, 25 C): 0.72 log10 K
log K of transfer, water to solvent ([2]; 2-Methylpropan-2-ol, 25 C): 0.52 log10 K
log K of transfer, water to solvent ([2]; Acetone, 25 C): 0.53 log10 K
log K of transfer, water to solvent ([2]; Benzene, 25 C): 0.43 log10 K
log K of transfer, water to solvent ([2]; Butan-1-ol, 25 C): 0.51 log10 K
log K of transfer, water to solvent ([2]; Butan-2-ol, 25 C): 0.69 log10 K
log K of transfer, water to solvent ([2]; Butanone, 25 C): 0.5 log10 K
log K of transfer, water to solvent ([2]; CCl4, 25 C): 0.33 log10 K
log K of transfer, water to solvent ([2]; Chloroform, 25 C): 1.29 log10 K
log K of transfer, water to solvent ([2]; Cyclohexane, 25 C): -0.41 log10 K
log K of transfer, water to solvent ([2]; Ethanol, 25 C): 0.74 log10 K
log K of transfer, water to solvent ([2]; Hexadecane, 25 C): -0.418 log10 K
log K of transfer, water to solvent ([2]; Hexane, 25 C): -0.37 log10 K
log K of transfer, water to solvent ([2]; Propan-1-ol, 25 C): 0.55 log10 K
log K of transfer, water to solvent ([2]; Propan-2-ol, 25 C): 0.42 log10 K
log K of transfer, water to solvent ([2]; Toluene, 25 C): 0.32 log10 K

Oc1cccc(F)c1
log K of transfer, gas to solvent ([1]; Hexadecane, 25 C): 3.84 log10 K
log K of transfer, gas to solvent ([1]; Water, 25 C): 4.58 log10 K
log K of transfer, water to solvent ([2]; Hexadecane, 25 C): -0.738 log10 K

CCCCCCN
log K of transfer, gas to solvent ([1]; Hexadecane, 25 C): 3.65 log10 K
log K of transfer, gas to solvent ([1]; Water, 25 C): 2.9 log10 K
log K of transfer, water to solvent ([2]; Hexadecane, 25 C): 0.755 log10 K

CCCCCCCCCCCCO
log K of transfer, gas to solvent ([1]; Hexadecane, 25 C): 6.62 log10 K
log K of transfer, gas to solvent ([1]; Hexane, 25 C): 6.79 log10 K
log K of transfer, gas to solvent ([1]; Water, 25 C): 2.44 log10 K
log K of transfer, water to solvent ([2]; Hexadecane, 25 C): 4.18 log10 K
log K of transfer, water to solvent ([2]; Hexane, 25 C): 4.35 log10 K

Cc1cncc(C)c1
log K of transfer, gas to solvent ([1]; Hexadecane, 25 C): 4.21 log10 K
log K of transfer, gas to solvent ([1]; Water, 25 C): 3.55 log10 K
log K of transfer, water to solvent ([2]; Hexadecane, 25 C): 0.664 log10 K

CCSC
log K of transfer, gas to solvent ([1]; Hexadecane, 25 C): 2.37 log10 K
log K of transfer, gas to solvent ([1]; Water, 25 C): 1.1 log10 K
log K of transfer, water to solvent ([2]; Hexadecane, 25 C): 1.27 log10 K

Fc1ccccc1
log K of transfer, gas to solvent ([1]; CCl4, 25 C): 2.67 log10 K
log K of transfer, gas to solvent ([1]; Chloroform, 25 C): 3.44 log10 K
log K of transfer, gas to solvent ([1]; Cyclohexane, 25 C): 2.81 log10 K
log K of transfer, gas to solvent ([1]; Hexadecane, 25 C): 2.79 log10 K
log K of transfer, gas to solvent ([1]; Hexane, 25 C): 3.04 log10 K
log K of transfer, gas to solvent ([1]; Tetrahydrofuran, 25 C): 3.62 log10 K
log K of transfer, gas to solvent ([1]; Water, 25 C): 0.59 log10 K
log K of transfer, water to solvent ([2]; CCl4, 25 C): 2.08 log10 K
log K of transfer, water to solvent ([2]; Chloroform, 25 C): 2.85 log10 K
log K of transfer, water to solvent ([2]; Cyclohexane, 25 C): 2.22 log10 K
log K of transfer, water to solvent ([2]; Hexadecane, 25 C): 2.2 log10 K
log K of transfer, water to solvent ([2]; Hexane, 25 C): 2.45 log10 K
log K of transfer, water to solvent ([2]; Tetrahydrofuran, 25 C): 3.03 log10 K

OC12CC3CC(CC(C3)C1)C2
log K of transfer, gas to solvent ([1]; Hexadecane, 25 C): 5.63 log10 K
log K of transfer, gas to solvent ([1]; Water, 25 C): 5.15 log10 K
log K of transfer, water to solvent ([2]; Hexadecane, 25 C): 0.484 log10 K

c1ccc2cnccc2c1
log K of transfer, gas to solvent ([1]; Chloroform, 25 C): 6.9 log10 K
log K of transfer, gas to solvent ([1]; Hexadecane, 25 C): 5.59 log10 K
log K of transfer, gas to solvent ([1]; Water, 25 C): 3.92 log10 K
log K of transfer, water to solvent ([2]; Chloroform, 25 C): 2.98 log10 K
log K of transfer, water to solvent ([2]; Hexadecane, 25 C): 1.67 log10 K

CC(C)(C)C
log K of transfer, gas to solvent ([1]; Hexadecane, 25 C): 1.82 log10 K
log K of transfer, gas to solvent ([1]; Hexane, 25 C): 2.03 log10 K
log K of transfer, gas to solvent ([1]; Methanol, 25 C): 1.4 log10 K
log K of transfer, gas to solvent ([1]; Water, 25 C): -1.84 log10 K
log K of transfer, water to solvent ([2]; Hexadecane, 25 C): 3.66 log10 K
log K of transfer, water to solvent ([2]; Hexane, 25 C): 3.87 log10 K
log K of transfer, water to solvent ([2]; Methanol, 25 C): 3.24 log10 K

C1CCCCC1
log K of transfer, gas to solvent ([1]; 1,2-Dichloroethane, 25 C): 2.79 log10 K
log K of transfer, gas to solvent ([1]; 2-Methylpropan-1-ol, 25 C): 2.83 log10 K
log K of transfer, gas to solvent ([1]; 2-Methylpropan-2-ol, 25 C): 2.69 log10 K
log K of transfer, gas to solvent ([1]; Benzene, 25 C): 2.97 log10 K
log K of transfer, gas to solvent ([1]; Butan-1-ol, 25 C): 2.73 log10 K
log K of transfer, gas to solvent ([1]; Butan-2-ol, 25 C): 2.67 log10 K
log K of transfer, gas to solvent ([1]; Butanone, 25 C): 2.75 log10 K
log K of transfer, gas to solvent ([1]; Butyronitrile, 25 C): 2.67 log10 K
log K of transfer, gas to solvent ([1]; CCl4, 25 C): 3.22 log10 K
log K of transfer, gas to solvent ([1]; Chlorobenzene, 25 C): 3.23 log10 K
log K of transfer, gas to solvent ([1]; Chloroform, 25 C): 3.26 log10 K
log K of transfer, gas to solvent ([1]; Cyclohexane, 25 C): 3.25 log10 K
log K of transfer, gas to solvent ([1]; Cyclohexanone, 25 C): 2.81 log10 K
log K of transfer, gas to solvent ([1]; Decan-1-ol, 25 C): 2.5 log10 K
log K of transfer, gas to solvent ([1]; Di-n-butyl ether, 25 C): 3.01 log10 K
log K of transfer, gas to solvent ([1]; Dichloromethane, 25 C): 3.01 log10 K
log K of transfer, gas to solvent ([1]; Diethyl Ether, 25 C): 3.07 log10 K
log K of transfer, gas to solvent ([1]; Ethanol, 25 C): 2.55 log10 K
log K of transfer, gas to solvent ([1]; Heptan-1-ol, 25 C): 2.73 log10 K
log K of transfer, gas to solvent ([1]; Hexadecane, 25 C): 2.96 log10 K
log K of transfer, gas to solvent ([1]; Hexan-1-ol, 25 C): 2.75 log10 K
log K of transfer, gas to solvent ([1]; Hexane, 25 C): 3.1 log10 K
log K of transfer, gas to solvent ([1]; Methanol, 25 C): 2.43 log10 K
log K of transfer, gas to solvent ([1]; Octan-1-ol, 25 C): 2.71 log10 K
log K of transfer, gas to solvent ([1]; Pentan-1-ol, 25 C): 2.72 log10 K
log K of transfer, gas to solvent ([1]; Perfluoroalkane, 25 C): 1.96 log10 K
log K of transfer, gas to solvent ([1]; Propan-1-ol, 25 C): 2.55 log10 K
log K of transfer, gas to solvent ([1]; Propan-2-ol, 25 C): 2.53 log10 K
log K of transfer, gas to solvent ([1]; Propanone, 25 C): 2.6 log10 K
log K of transfer, gas to solvent ([1]; Propionitrile, 25 C): 2.51 log10 K
log K of transfer, gas to solvent ([1]; Tetrahydrofuran, 25 C): 3.13 log10 K
log K of transfer, gas to solvent ([1]; Water, 25 C): -0.9 log10 K
log K of transfer, water to solvent ([2]; 1,2-Dichloroethane, 25 C): 3.69 log10 K
log K of transfer, water to solvent ([2]; 2-Methylpropan-1-ol, 25 C): 3.73 log10 K
log K of transfer, water to solvent ([2]; 2-Methylpropan-2-ol, 25 C): 3.59 log10 K
log K of transfer, water to solvent ([2]; Acetone, 25 C): 3.5 log10 K
log K of transfer, water to solvent ([2]; Benzene, 25 C): 3.87 log10 K
log K of transfer, water to solvent ([2]; Butan-1-ol, 25 C): 3.63 log10 K
log K of transfer, water to solvent ([2]; Butan-2-ol, 25 C): 3.57 log10 K
log K of transfer, water to solvent ([2]; Butanone, 25 C): 3.65 log10 K
log K of transfer, water to solvent ([2]; Butyronitrile, 25 C): 3.57 log10 K
log K of transfer, water to solvent ([2]; CCl4, 25 C): 4.12 log10 K
log K of transfer, water to solvent ([2]; Chlorobenzene, 25 C): 4.13 log10 K
log K of transfer, water to solvent ([2]; Chloroform, 25 C): 4.16 log10 K
log K of transfer, water to solvent ([2]; Cyclohexane, 25 C): 4.15 log10 K
log K of transfer, water to solvent ([2]; Cyclohexanone, 25 C): 3.71 log10 K
log K of transfer, water to solvent ([2]; Decan-1-ol, 25 C): 3.4 log10 K
log K of transfer, water to solvent ([2]; Di-n-butyl ether, 25 C): 3.91 log10 K
log K of transfer, water to solvent ([2]; Dichloromethane, 25 C): 3.91 log10 K
log K of transfer, water to solvent ([2]; Diethyl Ether, 25 C): 3.97 log10 K
log K of transfer, water to solvent ([2]; Ethanol, 25 C): 3.45 log10 K
log K of transfer, water to solvent ([2]; Heptan-1-ol, 25 C): 3.63 log10 K
log K of transfer, water to solvent ([2]; Hexadecane, 25 C): 3.86 log10 K
log K of transfer, water to solvent ([2]; Hexan-1-ol, 25 C): 3.65 log10 K
log K of transfer, water to solvent ([2]; Hexane, 25 C): 4 log10 K
log K of transfer, water to solvent ([2]; Methanol, 25 C): 3.33 log10 K
log K of transfer, water to solvent ([2]; Octan-1-ol(dry), 25 C): 3.61 log10 K
log K of transfer, water to solvent ([2]; Pentan-1-ol, 25 C): 3.62 log10 K
log K of transfer, water to solvent ([2]; Perfluoroalkane, 25 C): 2.86 log10 K
log K of transfer, water to solvent ([2]; Propan-1-ol, 25 C): 3.45 log10 K
log K of transfer, water to solvent ([2]; Propan-2-ol, 25 C): 3.43 log10 K
log K of transfer, water to solvent ([2]; Propionitrile, 25 C): 3.41 log10 K
log K of transfer, water to solvent ([2]; Tetrahydrofuran, 25 C): 4.03 log10 K
